Assay results published in patent US8809331B2 (Genentech, Inc., priority 2011, dated 2014).

target: T1, LRRK2 (Homo sapiens, UniProt Q5S007, G2019S); test: In Vitro LRRK2 LabChip Assay (LRRK2 Ki); format: biochemical; conditions: Table 5 compounds (formula I)
T1 construct: purchased Invitrogen PV4882
Procedure: In Vitro LRRK2 LabChip Assay
This assay was used to determine a compound's potency in inhibiting activity of LRRK2 by determining, Kiapp, IC50, or percent inhibition values. In a polypropylene plate, LRRK2, fluorescently-labeled peptide substrate, ATP and test compound were incubated together. Using a LabChip 3000 (Caliper Life Sciences), after the reaction the substrate was separated by capillary electrophoresis into two populations: phosphorylated and unphosphorylated. The relative amounts of each were quantitated by fluorescence intensity. LRRK2 Ki was determined according to the equation: Y=V0*(1−((x+Ki*(1+S/Km)+Et)/(2*Et)−(((x+Ki*(1+S/Km)+Et)^2−(4*Et*x))^0.5)/(2*Et))). Ki values in Table 4 and elsewhere herein are shown in μM.
Assay conditions and materials used were as follows:
LRRK2 Wild type in 5 mM MgCl2: 15 nM (Invitrogen lot #500607F)
Kinase reaction time: 2 hours
Wild type in 5 mM MgCl2: 80 μM
Solid Support: Black 50 μL volume polypropylene 384 well plate (MatriCal cat # MP101-1-PP)
Kinase: LRRK2 G2019S (Invitrogen cat #PV4882). • LRRK2 Wild type (Invitrogen cat #PV4874).
Substrate: 5FAM-[…]-CONH2
Non-binding plate: 384 well clear V-bottom polypropylene plates (Greiner cat #781280).
ATP: 10 mM ATP (Cell Signaling cat #9804).
Coating Reagent #3: Coating Reagent #3 (Caliper).
Complete Reaction Buffer: H2O/25 mM Tris, pH 8.0/5 mM MgCl2/2 mM DTT/0.01% Triton X-100.
Stop Solution: H2O/100 mM HEPES, pH 7.2/0.015% Brij-35/0.2% Coating Reagent #3/20 mM EDTA.
Separation Buffer: H2O/100 mM HEPES, pH 7.2/0.015% Brij-35/0.1% Coating Reagent #3/1:200 Coating Reagent #8/10 mM EDTA/5% DMSO.
Compound Plate Preparation:
For serial dilutions, 34.6 μl DMSO was added to columns 3-24. For the assay controls, 37.5 μl DMSO was added to columns 1 and 2 of rows A and P. a, d and 50 μl 25 μM G-028831 (Staurosporine) was added to columns 1 and 2, row B. For the samples: to start at 100 μM, 37.5 μl DMSO was to columns 1 and 2, then 12.5 μl 10 mM compound; to start at 10 μM, 78 μl DMSO was added to columns 1 & 2, then 2 μl 10 mM compound; and to start at 1 μM, 25 μM compound (2 μl 10 mM cmpd+798 μl DMSO) was added to empty columns 1 and 2. A Precision instrument was used to perform 1:3.16 serial dilutions (“PLK_BM_serial_halflog”).
ATP was diluted to 282.1 μM in Complete Kinase Buffer (final concentration was 130 μM).
Total and Blank Preparation:
In Complete Reaction Buffer, substrate was diluted to 4 μM. Equal volumes of Complete Reaction Buffer and 4 μM substrate were combined to obtain the blank. Equal volumes of Complete Reaction Buffer and 4 μM substrate were combined and to the combined solution was added 2× final LRRK2 concentration.
To a 50 μl polypropylene plate, 5 μl/well buffer/substrate was added by hand to Blank wells. A Biomek FX was used to start the kinase reaction (“PLK SAR 23 ATP”). The following were added to the appropriate wells:
5 μl/well compound/ATP in Assay Plate;
5 μl/well kinase/substrate in Assay Plate;
The plate was incubated for 2 hours in the dark. Biomek FX was used to stop the kinase reaction (“PLK Stop”), and 10 μl/well Stop solution was added to the Assay Plate. Results were read on the LabChip 3000.
The LabChip 3000 was run using the job “LRRK2 IC50” with the following job settings:
Downstream voltage: −500 V
Upstream voltage: −2350 V
Post sample buffer sip time: 75 seconds
Post dye buffer sip time: 75 seconds
Final delay time: 200 seconds

T1 sequence (Q5S007 whole entry G2019S): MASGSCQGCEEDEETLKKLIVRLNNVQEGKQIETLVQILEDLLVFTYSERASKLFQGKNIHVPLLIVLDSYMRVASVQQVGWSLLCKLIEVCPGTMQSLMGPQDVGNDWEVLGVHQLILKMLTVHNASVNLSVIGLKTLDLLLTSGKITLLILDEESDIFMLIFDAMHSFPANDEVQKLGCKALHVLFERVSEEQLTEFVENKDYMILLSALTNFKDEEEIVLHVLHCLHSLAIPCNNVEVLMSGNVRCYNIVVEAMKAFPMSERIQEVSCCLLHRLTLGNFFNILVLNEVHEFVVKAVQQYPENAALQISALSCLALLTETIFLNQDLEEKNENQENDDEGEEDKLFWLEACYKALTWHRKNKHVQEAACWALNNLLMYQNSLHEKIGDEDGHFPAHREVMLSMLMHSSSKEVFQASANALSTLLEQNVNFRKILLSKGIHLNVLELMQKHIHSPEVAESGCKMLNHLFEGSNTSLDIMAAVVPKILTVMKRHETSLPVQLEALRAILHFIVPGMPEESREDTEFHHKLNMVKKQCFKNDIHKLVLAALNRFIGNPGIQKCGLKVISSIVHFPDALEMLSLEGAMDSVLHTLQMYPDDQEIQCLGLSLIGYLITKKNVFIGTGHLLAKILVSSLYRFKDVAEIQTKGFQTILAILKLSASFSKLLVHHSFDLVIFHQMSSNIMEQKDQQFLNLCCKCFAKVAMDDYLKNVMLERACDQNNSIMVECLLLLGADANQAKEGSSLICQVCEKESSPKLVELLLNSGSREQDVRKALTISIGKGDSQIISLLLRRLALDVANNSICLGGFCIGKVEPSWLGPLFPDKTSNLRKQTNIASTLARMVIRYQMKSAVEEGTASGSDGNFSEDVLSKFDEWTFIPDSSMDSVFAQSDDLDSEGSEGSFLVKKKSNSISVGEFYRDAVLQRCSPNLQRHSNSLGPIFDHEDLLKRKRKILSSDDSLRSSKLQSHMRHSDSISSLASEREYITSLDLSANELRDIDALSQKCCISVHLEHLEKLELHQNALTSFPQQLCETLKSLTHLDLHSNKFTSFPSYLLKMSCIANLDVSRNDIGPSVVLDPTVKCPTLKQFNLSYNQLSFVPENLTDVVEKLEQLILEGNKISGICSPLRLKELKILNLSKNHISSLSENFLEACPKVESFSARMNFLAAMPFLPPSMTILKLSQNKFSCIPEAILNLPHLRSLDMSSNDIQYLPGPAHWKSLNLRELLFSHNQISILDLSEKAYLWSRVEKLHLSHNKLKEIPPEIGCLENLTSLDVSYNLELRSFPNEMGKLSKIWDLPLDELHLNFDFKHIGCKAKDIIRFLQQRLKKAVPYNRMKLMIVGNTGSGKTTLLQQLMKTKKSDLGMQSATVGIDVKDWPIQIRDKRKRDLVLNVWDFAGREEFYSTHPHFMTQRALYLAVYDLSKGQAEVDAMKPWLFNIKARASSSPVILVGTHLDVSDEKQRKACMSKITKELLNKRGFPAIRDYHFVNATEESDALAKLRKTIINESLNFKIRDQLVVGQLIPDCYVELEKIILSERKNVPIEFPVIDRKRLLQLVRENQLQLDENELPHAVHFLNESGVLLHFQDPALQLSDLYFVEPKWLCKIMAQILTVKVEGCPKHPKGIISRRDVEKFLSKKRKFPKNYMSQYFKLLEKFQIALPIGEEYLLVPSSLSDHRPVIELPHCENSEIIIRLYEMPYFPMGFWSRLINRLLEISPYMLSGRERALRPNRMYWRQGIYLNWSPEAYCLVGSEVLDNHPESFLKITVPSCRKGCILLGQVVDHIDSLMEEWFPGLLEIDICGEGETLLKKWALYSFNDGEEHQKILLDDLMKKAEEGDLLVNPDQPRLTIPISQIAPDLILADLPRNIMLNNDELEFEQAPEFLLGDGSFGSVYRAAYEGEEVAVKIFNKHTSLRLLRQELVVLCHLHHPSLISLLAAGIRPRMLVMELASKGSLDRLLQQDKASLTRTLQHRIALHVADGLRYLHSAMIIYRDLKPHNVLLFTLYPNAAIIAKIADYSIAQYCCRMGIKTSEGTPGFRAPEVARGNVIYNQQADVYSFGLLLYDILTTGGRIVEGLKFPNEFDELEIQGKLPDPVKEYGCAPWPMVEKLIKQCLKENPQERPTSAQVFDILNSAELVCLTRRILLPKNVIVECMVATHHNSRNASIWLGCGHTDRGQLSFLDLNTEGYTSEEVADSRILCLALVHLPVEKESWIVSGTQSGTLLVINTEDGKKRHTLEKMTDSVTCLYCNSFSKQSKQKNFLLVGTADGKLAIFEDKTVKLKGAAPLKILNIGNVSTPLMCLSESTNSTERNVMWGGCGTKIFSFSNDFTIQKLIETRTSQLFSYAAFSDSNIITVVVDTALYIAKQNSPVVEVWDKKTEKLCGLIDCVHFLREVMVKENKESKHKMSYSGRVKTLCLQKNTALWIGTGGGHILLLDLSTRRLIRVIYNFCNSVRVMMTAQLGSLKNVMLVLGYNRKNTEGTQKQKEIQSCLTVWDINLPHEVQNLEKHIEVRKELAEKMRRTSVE

| Structure (SMILES) | Ki [nM] |
| --- | --- |
| COc1cc(C(=O)N2CCOCC2)c(F)cc1Nc1ncc(C(F)(F)F)c(NC2CC2)n1 [Compound 25, [4-(4-Cyclopropylamino-5-trifluoromethyl-pyrimidin-2-ylamino)-2-fluoro-5-methoxy-phenyl]-morpholin-4-yl-methanone] | 0.507 |
| COc1cc(C(=O)N2CCOCC2)c(F)cc1Nc1ncc(C(F)(F)F)c(N2CCC2)n1 [Compound 26, [4-(4-Azetidin-1-yl-5-trifluoromethyl-pyrimidin-2-ylamino)-2-fluoro-5-methoxy-phenyl]-morpholin-4-yl-methanone] | 31.5 |
| CNc1nc(Nc2cc(OC)c(C(=O)NCC(C)(C)O)cc2F)ncc1C(F)(F)F [Compound 27, 5-Fluoro-N-(2-hydroxy-2-methyl-propyl)-2-methoxy-4-(4-methylamino-5-trifluoromethyl-pyrimidin-2-ylamino)-benzamide] | 11.7 |
| CCNc1nc(Nc2cc(OC)c(C(=O)NCC(C)(C)O)cc2F)ncc1C(F)(F)F [Compound 28, 4-(4-Ethylamino-5-trifluoromethyl-pyrimidin-2-ylamino)-5-fluoro-N-(2-hydroxy-2-methyl-propyl)-2-methoxy-benzamide] | 6.42 |
| CNc1nc(Nc2cc(OC)c(C(=O)N(C)CC(C)(C)O)cc2F)ncc1C(F)(F)F [Compound 29, 5-Fluoro-N-(2-hydroxy-2-methyl-propyl)-2-methoxy-N-methyl-4-(4-methylamino-5-trifluoromethyl-pyrimidin-2-ylamino)-benzamide] | 19.5 |
| CCNc1nc(Nc2cc(OC)c(C(=O)N(C)CC(C)(C)O)cc2F)ncc1C(F)(F)F [Compound 30, 4-(4-Ethylamino-5-trifluoromethyl-pyrimidin-2-ylamino)-5-fluoro-N-(2-hydroxy-2-methyl-propyl)-2-methoxy-N-methyl-benzamide] | 7.07 |
| CCNc1nc(Nc2cc(F)c(C(=O)N3CCOCC3)cc2F)ncc1C(F)(F)F [Compound 31, [4-(4-Ethylamino-5-trifluoromethyl-pyrimidin-2-ylamino)-2,5-difluoro-phenyl]-morpholin-4-yl-methanone] | 9.48 |
| COc1cc(C(=O)N2CCOCC2)c(F)cc1Nc1ncc(C(F)(F)F)c(NC(C)C)n1 [Compound 32, [2-Fluoro-4-(4-isopropylamino-5-trifluoromethyl-pyrimidin-2-ylamino)-5-methoxy-phenyl]-morpholin-4-yl-methanone] | 3.49 |
| CNc1nc(Nc2ccc(C(=O)N3CCOCC3)c(C)c2OC)ncc1C(F)(F)F [Compound 33, [3-Methoxy-2-methyl-4-(4-methylamino-5-trifluoromethyl-pyrimidin-2-ylamino)-phenyl]-morpholin-4-yl-methanone] | 114 |
| CCNc1nc(Nc2cc(F)c(C(=O)N3CC4(CCO4)C3)cc2OC)ncc1C(F)(F)F [Compound 34, [4-(4-Ethylamino-5-trifluoromethyl-pyrimidin-2-ylamino)-2-fluoro-5-methoxy-phenyl]-(1-oxa-6-aza-spiro[3.3]hept-6-yl)-methanone] | 1.3 |
| CNc1nc(Nc2cc(F)c(C(=O)NCC(C)(C)O)cc2OC)ncc1C(F)(F)F [Compound 35, 2-Fluoro-N-(2-hydroxy-2-methyl-propyl)-5-methoxy-4-(4-methylamino-5-trifluoromethyl-pyrimidin-2-ylamino)-benzamide] | 4.36 |
| CNc1nc(Nc2cc(F)c(C(=O)N3C[C@H](F)[C@@H](F)C3)cc2OC)ncc1C(F)(F)F [Compound 36, ((3S,4S)-3,4-Difluoro-pyrrolidin-1-yl)-[2-fluoro-5-methoxy-4-(4-methylamino-5-trifluoromethyl-pyrimidin-2-ylamino)-phenyl]-methanone] | 4.42 |
| CCNc1nc(Nc2cc(F)c(C(=O)NC)cc2OC)ncc1C(F)(F)F [Compound 37, 4-(4-Ethylamino-5-trifluoromethyl-pyrimidin-2-ylamino)-2-fluoro-5-methoxy-N-methyl-benzamide] | 1.31 |
| CNc1nc(Nc2ccc(C(=O)NCC(C)(C)O)c(F)c2OC)ncc1C(F)(F)F [Compound 38, 2-Fluoro-N-(2-hydroxy-2-methyl-propyl)-3-methoxy-4-(4-methylamino-5-trifluoromethyl-pyrimidin-2-ylamino)-benzamide] | 11.6 |
| CNc1nc(Nc2cc(OC)c(C(=O)N3CCC(F)(F)C3)cc2OCCF)ncc1C(F)(F)F [Compound 39, (3,3-Difluoro-pyrrolidin-1-yl)-[5-(2-fluoro-ethoxy)-2-methoxy-4-(4-methylamino-5-trifluoromethyl-pyrimidin-2-ylamino)-phenyl]-methanone] | 1.46 |
| CNc1nc(Nc2cc(OC)c(C(=O)N3CC4(CCO4)C3)cc2Cl)ncc1C(F)(F)F [Compound 40, [5-Chloro-2-methoxy-4-(4-methylamino-5-trifluoromethyl-pyrimidin-2-ylamino)-phenyl]-(1-oxa-6-aza-spiro[3.3]hept-6-yl)-methanone] | 2.76 |
| CCNc1nc(Nc2ccc(C(=O)N3CCOCC3)c(F)c2F)ncc1C(F)(F)F [Compound 41, [4-(4-Ethylamino-5-trifluoromethyl-pyrimidin-2-ylamino)-2,3-difluoro-phenyl]-morpholin-4-yl-methanone] | 2.99 |
| COc1cc(C(=O)N2CCOCC2)c(C)cc1Nc1ncc(C(F)(F)F)c(NC2CC2)n1 [Compound 42, [4-(4-Cyclopropylamino-5-trifluoromethyl-pyrimidin-2-ylamino)-5-methoxy-2-methyl-phenyl]-morpholin-4-yl-methanone] | 0.31 |
| CCNc1nc(Nc2cc(OC)c(C(=O)N3CC4(COC4)C3)cc2Cl)ncc1C(F)(F)F [Compound 43, [5-Chloro-4-(4-ethylamino-5-trifluoromethyl-pyrimidin-2-ylamino)-2-methoxy-phenyl]-(2-oxa-6-aza-spiro[3.3]hept-6-yl)-methanone] | 0.832 |
| CCNc1nc(Nc2cc(C)c(C(=O)N3CCOCC3)cc2OC)ncc1C(F)(F)F [Compound 44, [4-(4-Ethylamino-5-trifluoromethyl-pyrimidin-2-ylamino)-5-methoxy-2-methyl-phenyl]-morpholin-4-yl-methanone] | 0.31 |
| COc1cc(C(=O)NCC(C)(C)O)c(F)cc1Nc1ncc(C(F)(F)F)c(NC2CC2)n1 [Compound 45, 4-(4-Cyclopropylamino-5-trifluoromethyl-pyrimidin-2-ylamino)-2-fluoro-N-(2-hydroxy-2-methyl-propyl)-5-methoxy-benzamide] | 0.31 |
| CCNc1nc(Nc2ccc(C(=O)NC(C)(C)C)cc2OC)ncc1C#N [Compound 46, N-tert-Butyl-4-(5-cyano-4-ethylamino-pyrimidin-2-ylamino)-3-methoxy-benzamide] | 3.03 |
| CNc1nc(Nc2ccc(C(=O)N3CCOCC3)cc2OC(F)F)ncc1C(F)(F)F [Compound 47, [3-Difluoromethoxy-4-(4-methylamino-5-trifluoromethyl-pyrimidin-2-ylamino)-phenyl]-morpholin-4-yl-methanone] | 5.98 |
| CNc1nc(Nc2cc(F)c(C(=O)N3CCOCC3)cc2OCCF)ncc1C(F)(F)F [Compound 48, [2-Fluoro-5-(2-fluoro-ethoxy)-4-(4-methylamino-5-trifluoromethyl-pyrimidin-2-ylamino)-phenyl]-morpholin-4-yl-methanone] | 3.48 |
| CCNc1nc(Nc2cc(F)c(C(=O)N3CCOCC3)cc2OCCF)ncc1C(F)(F)F [Compound 49, [4-(4-Ethylamino-5-trifluoromethyl-pyrimidin-2-ylamino)-2-fluoro-5-(2-fluoro-ethoxy)-phenyl]-morpholin-4-yl-methanone] | 2.02 |
